Consider five compounds from ChEMBL document CHEMBL1139635, “Synthesis, antitumor evaluation and DNA photocleaving activity of novel methylthiazonaphthalimides with aminoalkyl side chains” (Bioorg Med Chem Lett, 2005).

One experiment relates to P388. Put plainly: Cytotoxic concentration against murine P388 leukemia cell line growth determined by microculture tetrazolium-formazan method. The following applies: Mus musculus. In kind it is functional, cell-based.
Another experiment relates to Nucleic Acid. Put plainly: Scatchard binding constant towards calf thymus DNA. The format is functional. As to conditions: Bos taurus.
Another experiment deals with A549. As to the kind of experiment: Cytotoxic concentration against human A549 lung cancer cell line determined by sulforhodamine B dye-staining method. The format is functional, cell-based. (The SRB assay estimates cell density from bound dye.)

One may read the IC50 as the concentration that inhibits the measured activity by half. High values mean weaker potency in that assay, low ones greater potency in that assay.

For `CCN(CC)CCN1C(=O)c2cccc3c2c(cc2nc(C)sc23)C1=O`, the IC50 with P388 came out at 640 nM; in the experiment on A549, 158 nM. The Binding constant with Nucleic Acid worked out at 166000 M⁻¹.

With `Cc1nc2cc3c4c(cccc4c2s1)C(=O)N(CCN(C)C)C3=O`, the IC50 was found to be 31 nM in the experiment with P388 and 82.8 nM with A549. In the experiment with Nucleic Acid, the Binding constant turned out to be 231000 M⁻¹.

For `Cc1nc2cc3c4c(cccc4c2s1)C(=O)N(CCN1CCNCC1)C3=O`, the results for the IC50 in the experiment with P388 and with A549 were 1130 nM and 20.8 nM, respectively. For the same compound, in the experiment on Nucleic Acid, the Binding constant worked out at 226000 M⁻¹.

For the compound `Cc1nc2cc3c4c(cccc4c2s1)C(=O)N(CCCN(C)C)C3=O`, the concentration for half-maximal inhibition (IC50) in the experiment on P388 was 1700 nM; in the experiment on A549, 1800 nM. The same compound yielded a Binding constant in the experiment with Nucleic Acid of 666000 M⁻¹.

The compound `CN(C)CCN1C(=O)c2cccc3cc(N)cc(c23)C1=O` [AMONAFIDE] gave an IC50 with P388 of 200 nM.
